Experimental findings from patent publication US7455984B2, “Immunoreactive and immunotherapeutic molecules” (The Walter and Eliza Hall Institute of Medical Research, priority 1995, dated 2008) are described below.

The test deals with Peripheral blood mononuclear cells from IDDM at-risk and HLA-DR matched control subjects. Description: T-cell proliferation assay ([3H]thymidine incorporation, delta score), ten HLA-DR matched pairs. In kind it is cell-based, human. Particulars: for Reactivity (T-cell proliferation) by subject group: IDDM at-risk and control subjects, ten pairs; for Delta Score, Mean: mean of 10 subjects; for T-cell proliferative response, IDDM at-risk versus control subjects: highest concentration of peptide, Wilcoxon one-tailed paired analysis (proinsulin p<0.008; GAD p<0.018).

“CRFDPQFALTNIAVRK [unrelated control peptide, irrelevant control peptide (Macromolecular Resources, Fort Collins, Colo.), reference compound]”: the “Reactivity (T-cell proliferation) by subject group” value (from here on “Reactivity (T-cell proliferation)”) is recorded as “no subject reacted”.

Turning to “FFYTPKTRREAED [Proinsulin, synthetic 13-mer peptide of human proinsulin, amino acid residues 24-36]”, the “Reactivity (T-cell proliferation)” value is given as “confined almost entirely to IDDM at-risk subjects” and the “T-cell proliferative response, IDDM at-risk versus control subjects” value is reported as “greater among IDDM at-risk than control subjects”. The “Delta Score, Mean” value (Proinsulin 0.4 μg/ml, At Risk, Wilcoxon one-tailed P 0.054 vs Control) is reported as 136.0 cpm. Moreover, the “Delta Score” value (Proinsulin 0.4 μg/ml, Control subject of each pair) came to 0 cpm. In addition, the “Delta Score, Mean” value (Proinsulin 0.4 μg/ml, Control) is given as 0 cpm. Also, the “Delta Score, Mean” value (Proinsulin 2 μg/ml, At Risk, Wilcoxon one-tailed P 0.125 vs Control) stood at 251.1 cpm. Under “Proinsulin 2 μg/ml, Control”, the “Delta Score, Mean” value worked out at 45.8 cpm. Further, under “Proinsulin 10 μg/ml, At Risk, Wilcoxon one-tailed P 0.008 vs Control”, the “Delta Score, Mean” value was 558.7 cpm. The “Delta Score, Mean” value (Proinsulin 10 μg/ml, Control) amounted to 27.6 cpm.

Consider “FWYIPPSLRTLED [GAD, synthetic 13-mer peptide of human GAD 65, amino acid residues 506-518]”, for which the “Reactivity (T-cell proliferation)” value is on record as “some controls also responded” and the “T-cell proliferative response, IDDM at-risk versus control subjects” value is “greater among IDDM at-risk than control subjects”. In addition, the “Delta Score, Mean” value (GAD 0.4 μg/ml, At Risk, Wilcoxon one-tailed P 0.199 vs Control) is recorded as 135.3 cpm. Moreover, where the note is “GAD 0.4 μg/ml, Control”, the “Delta Score, Mean” value was 34.1 cpm. Moreover, under “GAD 2 μg/ml, At Risk, Wilcoxon one-tailed P 0.199 vs Control”, the “Delta Score, Mean” value was determined as 133.0 cpm. Moreover, where the note is “GAD 2 μg/ml, Control”, the “Delta Score, Mean” value stood at 178.2 cpm. For the same sequence, the “Delta Score, Mean” value (GAD 10 μg/ml, At Risk, Wilcoxon one-tailed P 0.018 vs Control) amounted to 1042.4 cpm. The “Delta Score, Mean” value (GAD 10 μg/ml, Control) is on record as 318.1 cpm.
